Columns and labels:
SARS-CoV-2 [1] = test: (§1) Functional immunofluorescence assay to measure dose dependent changes in antiviral-drug inhibitory efficacy against hCoV-19/USA-WA1/2020 in HeLa-ACE2 cells which are seeded prior to drug treatment, then infected with hCoV-19/USA-WA1/2020. Cells are fixed with 10 % formaldehyde, washed with PBS, permeabilized with permeabilization buffer, then washed with wash buffer. The cells are incubated with nucleoprotein primary antibody IC7C7. Following primary staining, cells are washed with wash buffer and incubated in a solution of with Alexa fluor 488 and DAPI. Infected and uninfected cells are visualized and analyzed by Gen5 software. The assay has been performed by Icahn School of Medicine at Mount Sinai.; assay type: organism-based, Homo sapiens
[2] = system: Middle East respiratory syndrome-related coronavirus; test: microbe, parasite or virus in culture; assay type: functional, organism-based, Chlorocebus sabaeus, VeroE6/TMPRSS2; conditions: Middle East respiratory syndrome-related coronavirus, VeroE6/TMPRSS2
SARS-CoV-2 [3] = test: as §1, with “iPSC-Pneumocyte” for “HeLa-ACE2”, “to” for “to drug”; assay type: organism-based, Homo sapiens; conditions: Severe acute respiratory syndrome coronavirus 2, Pneumocyte; for EC90: Baseline response 0 %, Maximum response 100 %
[4] = system: Middle East respiratory syndrome-related coronavirus; test: microbe, parasite or virus in culture; assay type: functional, organism-based, Chlorocebus sabaeus; conditions: Vero 76
[5] = Severe acute respiratory syndrome coronavirus 2, HeLa-ACE2

| SMILES | EC50 (SARS-CoV-2 [1]; [5]) [µM] | EC50 [2] [µM] | EC90 [2] [µM] | EC50 (SARS-CoV-2 [3]) [µM] | further results |
| --- | --- | --- | --- | --- | --- |
| Cn1ncc(-c2cc3c(N[C@@H](c4ccc5c(n4)OCCO5)C(C)(C)C)ncnc3[nH]2)c1C#N | 1.49 | > 5 | > 5 |  | EC90 (SARS-CoV-2 [1]; Severe acute respiratory syndrome coronavirus 2, HeLa-ACE2, Baseline response 0 %, Hill slope -0.781, Maximum measured 101.751 %, Maximum response 100 %, Minimum measured 4.671 %, R squared 0.23): > 20 µM; EC90 (SARS-CoV-2 [1]; Severe acute respiratory syndrome coronavirus 2, HeLa-ACE2, Baseline response 0 %, Hill slope -0.984, Maximum measured 108.122 %, Maximum response 100 %, Minimum measured 8.006 %, R squared 0.973): > 10 µM; EC50 (SARS-CoV-2 [1]; hela-ace2): 1.6 µM |
| Cc1nn(C)cc1-c1cc2c(N[C@H](c3ccc4c(c3)S(=O)(=O)CCC4)C(C)C)ncnc2[nH]1 | > 20 | > 5 | > 5 |  | EC90 (SARS-CoV-2 [1]; Severe acute respiratory syndrome coronavirus 2, HeLa-ACE2, Baseline response 0 %, Hill slope -2.191, Maximum measured 111.189 %, Maximum response 100 %, Minimum measured 56.402 %, R squared 0.73): > 20 µM; EC90 (SARS-CoV-2 [1]; Severe acute respiratory syndrome coronavirus 2, HeLa-ACE2, Baseline response 0 %, Hill slope -5.449, Maximum measured 120.747 %, Maximum response 100 %, Minimum measured 82.491 %, R squared 0.099): > 20 µM |
| CC(C)[C@@H](Nc1ncnc2[nH]c(C(=O)N[C@@H]3CCN(C)C3)cc12)c1ccc2c(c1)S(=O)(=O)CCC2 | > 20 | > 5 | > 5 | > 50 | EC90 (SARS-CoV-2 [1]; Severe acute respiratory syndrome coronavirus 2, HeLa-ACE2, Baseline response 0 %, Hill slope 0.166, Maximum measured 108.327 %, Maximum response 100 %, Minimum measured 87.557 %, R squared 0.011): > 20 µM; EC90 (SARS-CoV-2 [1]; Severe acute respiratory syndrome coronavirus 2, HeLa-ACE2, Baseline response 0 %, Hill slope -0.788, Maximum measured 109.068 %, Maximum response 100 %, Minimum measured 93.8 %, R squared 0.114): > 20 µM; EC90 (SARS-CoV-2 [3]; Hill slope -0.484, Maximum measured 101.646 %, Minimum measured 52.305 %, R squared 0.601): > 50 µM |
| COc1ccc([C@H](Cc2nnn[nH]2)NC(=O)c2ncnc3[nH]ccc23)cc1 | > 20 | > 5 | > 5 |  | EC90 (SARS-CoV-2 [1]; Severe acute respiratory syndrome coronavirus 2, HeLa-ACE2, Baseline response 0 %, Hill slope -0.286, Maximum measured 116.588 %, Maximum response 100 %, Minimum measured 75.952 %, R squared 0.436): > 20 µM; EC90 (SARS-CoV-2 [1]; Severe acute respiratory syndrome coronavirus 2, HeLa-ACE2, Baseline response 0 %, Hill slope -1.346, Maximum measured 102.013 %, Maximum response 100 %, Minimum measured 88.847 %, R squared 0.139): > 20 µM |
| CNCc1cc(-c2cc3c(N[C@@H](c4ccc5c(c4)S(=O)(=O)CCC5)C(C)C)ncnc3[nH]2)co1 | > 20 | > 5 | > 5 | 3.34 | EC90 (SARS-CoV-2 [1]; Severe acute respiratory syndrome coronavirus 2, HeLa-ACE2, Baseline response 0 %, Hill slope -1.471, Maximum measured 134.366 %, Maximum response 100 %, Minimum measured 28.123 %, R squared 0.287): > 20 µM; EC90 (SARS-CoV-2 [1]; Severe acute respiratory syndrome coronavirus 2, HeLa-ACE2, Baseline response 0 %, Hill slope -3.107, Maximum measured 113.346 %, Maximum response 100 %, Minimum measured 56.361 %, R squared 0.692): > 20 µM; EC50 (SARS-CoV-2 [1]; hela-ace2): 11.6 µM; EC90 (SARS-CoV-2 [3]; Hill slope -0.579, Maximum measured 92.989 %, Minimum measured 2.106 %, R squared 0.758): > 50 µM |
| C[C@H](C(=O)O)[C@@H](NC(=O)c1ncnc2[nH]ccc12)c1ccc(Br)cc1 | > 20 | > 5 | > 5 |  | EC90 (SARS-CoV-2 [1]; Severe acute respiratory syndrome coronavirus 2, HeLa-ACE2, Baseline response 0 %, Hill slope -0.083, Maximum measured 104.611 %, Maximum response 100 %, Minimum measured 71.809 %, R squared 0.037): > 20 µM; EC90 (SARS-CoV-2 [1]; Severe acute respiratory syndrome coronavirus 2, HeLa-ACE2, Maximum measured 2742.07 %, Minimum measured 91.919 %): > 20 µM |
| CNC(=O)Cn1cc(-c2cc3c(N[C@@H](c4ccc5c(c4)S(=O)(=O)CCC5)C(C)C)ncnc3[nH]2)cn1 | > 20 | > 5 | > 5 | > 50 | EC90 (SARS-CoV-2 [1]; Severe acute respiratory syndrome coronavirus 2, HeLa-ACE2, Baseline response 0 %, Hill slope 1.327, Maximum measured 117.537 %, Maximum response 100 %, Minimum measured 90.244 %, R squared 0.066): > 20 µM; EC90 (SARS-CoV-2 [1]; Severe acute respiratory syndrome coronavirus 2, HeLa-ACE2, Maximum measured 116.513 %, Minimum measured 98.017 %): > 20 µM; EC90 (SARS-CoV-2 [3]; Hill slope -7.964, Maximum measured 130.776 %, Minimum measured 73.915 %, R squared 0.151): > 50 µM |
| CC(C)[C@@H](Nc1ncnc2[nH]c(-c3cnn(C)c3C#N)cc12)c1ccc2c(n1)OCCO2 |  | > 5 | > 5 | 12.7 | EC90 (SARS-CoV-2 [1]; Baseline response 0 %, EC90 CI (lower) 0.252 uM, EC90 CI (upper) 0.378 uM, Hill slope -1.375, Maximum measured 105.062 %, Maximum response 100 %, Minimum measured 1.471 %, R squared 0.975): 7.55 µM; EC90 (SARS-CoV-2 [1]; Baseline response 0 %, EC90 CI (lower) 1.033 uM, EC90 CI (upper) 2.755 uM, Hill slope -2.587, Maximum measured 119.294 %, Maximum response 100 %, Minimum measured 1.653 %, R squared 0.93): 9.22 µM; EC90 (SARS-CoV-2 [1]; Severe acute respiratory syndrome coronavirus 2, HeLa-ACE2, Baseline response 0 %, Hill slope -24.486, Maximum measured 143.7 %, Maximum response 100 %, Minimum measured 4.604 %, R squared 0.738): 6.44 µM; EC90 (SARS-CoV-2 [1]; Severe acute respiratory syndrome coronavirus 2, HeLa-ACE2, Baseline response 0 %, EC90 CI (lower) 1.926 uM, EC90 CI (upper) 3.068 uM, Hill slope -3.008, Maximum measured 101.777 %, Maximum response 100 %, Minimum measured 4.949 %, R squared 0.988): 10.5 µM; EC90 (SARS-CoV-2 [3]; EC90 CI (lower) 0 uM, EC90 CI (upper) 0 uM, Hill slope -10.753, Maximum measured 116.418 %, Minimum measured 5.314 %, R squared 0.553): 15.6 µM |
| CNC(=O)c1c[nH]c2ncnc(N[C@H](c3ccc4c(c3)S(=O)(=O)CCC4)C(C)C)c12 | > 20 |  |  | 6.74 | EC90 (SARS-CoV-2 [1]; Severe acute respiratory syndrome coronavirus 2, HeLa-ACE2, Baseline response 0 %, Hill slope -10.584, Maximum measured 109.331 %, Maximum response 100 %, Minimum measured 66.391 %, R squared 0.561): > 20 µM; EC90 (SARS-CoV-2 [3]; Hill slope -0.412, Maximum measured 88.736 %, Minimum measured 31.934 %, R squared 0.862): > 50 µM; EC50 [4]: > 32 µM |

From ChEMBL document CHEMBL5441381, “ASAP - In vitro antiviral effect” (2024)
